Results on one compound are retold here after patent publication US20240229097A1, “SYSTEM, METHOD, DEVICE AND MANUFACTURING METHOD THEREOF FOR DETECTING CELLULAR MECHANICAL FORCE” (Ruixin (Fuzhou) Technology Co., Ltd., priority 2021, published 2024).

Assay type in all cases: cell-based
Experiment [1] concerns breast cancer cells MCF-7 multicellular aggregates. The experiment can be described thus: 5-Fu drug sensitivity test on tumor cell multicellular aggregates on the cellular mechanical force detection device. To be noted: MCF-7 aggregates, 200 μM 5-Fu, cultured for one day, FIG. 18. As for the experimental part:
More specifically, this embodiment provides a method for culturing a tumor cell multicellular aggregate on the device for detecting cellular mechanical force for drug sensitivity test, including the steps:
S1, Generation of tumor cell multicellular aggregates: FN 50 μg/mL is applied to the top of the micropillar of the device for detecting cellular mechanical force and sterilized with UV for 30 minutes; breast cancer cells MCF-7 (approximately 1×10^5 to 9×10^5 cells) are seeded on the top surface of the micropillars (number of micropillars is not limited) of the device for detecting cellular mechanical force, which is then immersed in 3dGRO™ Spheroid Medium (S3077) for more than 3 days to induce the formation of tumor cell multicellular aggregates.
S2, Applying the generated tumor cell multicellular aggregates to a 5-Fu drug sensitivity test: 200 μM of 5-Fu is added to the tumor cell multicellular aggregates and cultured for one day; in the test, before the addition of 5-Fu and one day of culture after the addition of 5-Fu on the device for detecting cellular mechanical force (with tumor cell multicellular aggregates, including the culture medium), light reflection signals are captured by the light signal detection device (CCD sensor) and cellular mechanical force distribution images are obtained using the light signal analysis device (ImageJ), as shown in FIG. 18. […]

Experiment [2] relates to non-small cell lung cancer cells A549. The experiment can be described thus: Cell viability reflected by cellular mechanical force (micropillar light reflection device), A549 cells treated with 5FU. The source says: This embodiment specifically provides using the cellular mechanical force information obtained from any of the system for detecting cellular mechanical force described in the tenth to twelfth embodiments or the cellular mechanical force detection method described in the fourteenth embodiment to monitor cell viability.
(§1) Specifically, this embodiment cultures non-small cell lung cancer cells A549 on multiple device for detecting cellular mechanical force, treats them with different doses of the cell proliferation inhibitor 5-fluorouracil (5-FU), and monitors cellular mechanical forces at different time points using the system for detecting cellular mechanical force or the method described in the tenth to twelfth embodiments or the fourteenth embodiment. Cell proliferation and cytotoxicity are monitored at different time points using the CCK-8 assay kit, with cell viability measured by the MTT assay serving as a control, generating the data for FIGS. 16,b and c.

Experiment [3] has the same test system. The experiment can be described thus: MTT assay of cell viability of A549 cells treated with 5FU.
Source text: as §1

[4] abbreviates: different doses of 5FU, FIGS. 16,b and c.

Take `O=c1[nH]cc(F)c(=O)[nH]1` [5FU, 5-fluorouracil]: in experiment [1], the “cell viability of tumor cell multicellular aggregates” value was “reduced” and the “reflection signals of tumor cell multicellular aggregates” value is recorded as “noticeably weaken”. Also, the “time at which a significant decrease trend of cellular mechanical force is observed” value in experiment [2] (0.5 μM treatment dose) was 6 h. Moreover, the “time at which a significant decrease trend of cellular mechanical force is observed” value in experiment [2] (1 μM treatment dose) is 3 h. The “cellular viability reflected by mechanical force compared to the control group (DMSO)” value in experiment [2] (different doses of 5FU for 24 hours, relative to MTT assay, FIG. 16,b) is “greater reduction”. Besides, the “cell viability reflected by cellular mechanical forces” value in experiment [2] (setting [4]) is “dose-dependent decline”. In addition, the “cell viability measured by the conventional MTT assay” value in experiment [3] (setting [4]) is recorded as “dose-dependent decline”. Moreover, the “change in cell viability by MTT assay” value in experiment [3] (within 12 hours of 5FU treatment, FIG. 16,c) was “no significant change”.
